Where “and” joins values, the source holds several entries; their conditions need not be identical. Identical values can stand only once.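 Where inhibition never reached the appropriate level, the endpoint shown equals the highest concentration tested. Otherwise, values were interpolated linearly from a five-concentration, 48-hour dose response in 96-well plates. GI50 marks 50% less growth. TGI: concentration producing complete growth inhibition.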
How the values were obtained:
Assay in all cases: NCI-60 cell line screen, 48 h
M14 melanoma = system: M14 melanoma
UO-31 renal = system: UO-31 renal
SR leukemia = system: SR leukemia
K-562 leukemia = system: K-562 leukemia
TK-10 renal = system: TK-10 renal
SW-620 colon = system: SW-620 colon
RXF 393 renal = system: RXF 393 renal
COLO 205 colon = system: COLO 205 colon
786-0 renal = system: 786-0 renal
SF-539 CNS = system: SF-539 CNS
MALME-3M melanoma = system: MALME-3M melanoma
RPMI-8226 leukemia = system: RPMI-8226 leukemia
A549 NSCLC = system: A549 NSCLC

SMILES	TGI (M14 melanoma)	TGI (UO-31 renal)	TGI (SR leukemia)	TGI (K-562 leukemia)	TGI (TK-10 renal) [µM]	TGI (SW-620 colon) [µM]	TGI (RXF 393 renal) [µM]	TGI (COLO 205 colon)	TGI (786-0 renal)	TGI (SF-539 CNS)	TGI (MALME-3M melanoma)	TGI (RPMI-8226 leukemia)	TGI (A549 NSCLC)	GI50 (M14 melanoma)	GI50 (UO-31 renal)	GI50 (TK-10 renal)	GI50 (SF-539 CNS)	GI50 (A549 NSCLC)
C=C(C(=O)OC)[C@@H]1C[C@@H](OC(C)=O)C2=C[C@H](C[C@@]3(C)O[C@@H]3C3=CC(C)=C(O3)[C@H]1OC(C)=O)OC2=O	43.2 µM	36.3 µM	37.6 µM	24.9 µM	31.7	28.4	44	25.8 µM	49.1 µM	79 µM	30.7 µM	21.4 µM	> 100 µM					
COc1ccccc1/C=C/C1=NN(c2cccc(S(=O)(=O)O)c2)C2(C1)C(Cl)C(=O)N2c1nc2ccccc2s1 (stereo not given)	> 100 µM	33.5 µM	55.2 µM	> 100 µM	> 100	> 100	> 87	> 100 µM	> 59.8 µM	> 100 µM	> 100 µM	44 µM	> 100 µM					
CN(CCCNC(=O)c1cn(C)c2c1Cc1ccccc1-2)CCCNC(=O)c1cn(C)c2c1Cc1ccccc1-2	11.6 µM	21.8 µM	11.1 µM	17 µM	25.1	18.5	34.9	4.05 µM	17.9 µM	31.8 µM	24.5 µM	> 100 µM	32.3 µM					
COC(=O)/C=C1/OC(c2ccccc2)=C(C)C1=O	24.4 µM	26.7 µM	7.09 µM	15 µM	29.1	5.58	22.5	31.3 µM	22.3 µM	32.2 µM	26.7 µM	5.65 µM						
COc1ccc(COC(=O)NCC(=O)NC(C)C(=O)NC(Cc2ccccc2)C(=O)OCc2ccccc2)cc1 (stereo not given)	31.8 µM and > 100 µM	44.9 µM and > 100 µM	> 100 µM and 51.7 µM	> 100 µM and 52.6 µM	> 100	> 100	82.2	80.8 µM and 52.9 µM	73.1 µM and 36 µM	25.1 µM and > 100 µM	37.6 µM and 92.3 µM	> 100 µM and 57.1 µM	41.2 µM and > 100 µM	18 µM and 37.5 µM	23.2 µM and 69.6 µM	39.5 µM and > 100 µM	12.6 µM and 28.7 µM	18.8 µM and > 100 µM
CC(=O)OCC(=O)OC[C@H](OCc1ccccc1)[C@@H]1[C@H](OC(C)=O)C(=O)N1Cc1ccccc1	> 100 µM	> 100 µM	> 100 µM	> 100 µM	> 100	> 100		> 100 µM	> 100 µM		> 100 µM	> 100 µM	> 100 µM					
CC(C)(Cl)C(Br)CCC(Br)(CCl)C(Cl)CBr (stereo not given)	> 10 µM	> 10 µM	> 10 µM	> 10 µM	> 10	> 10	> 10	> 10 µM	> 10 µM	> 10 µM	> 10 µM	> 10 µM						
Cc1ccc2c(=O)cc(-c3ccc(C)s3)[nH]c2n1	55.9 µM	1.43 µM	> 100 µM	> 100 µM	> 100			2.29 µM	> 100 µM	0.972 µM	53 µM	2.57 µM	> 33.8 µM					
Cc1ccc2nc(C(C)C)c(=O)[nH]c2c1	> 100 µM	> 100 µM	> 100 µM	> 100 µM	> 100	> 100	> 100	> 100 µM	> 100 µM	> 100 µM	> 100 µM	> 100 µM	> 100 µM					
CCN(CC)CCN(C)c1ccc(CO)c2c1C(=O)c1ccccc1S2=O (stereo not given)	4.11 µM	42.1 µM	5.53 µM	> 20.3 µM	32.3	3.63	36	21.6 µM	3.22 µM	3.61 µM	27.2 µM	11.8 µM	25.6 µM					
CN(C)c1c(C2OC(CO)C(O)C2O)c(=O)c1=O (stereo not given)	> 100 µM	> 100 µM	> 100 µM	> 100 µM	> 100	> 100	> 100		> 100 µM	> 100 µM	> 100 µM	> 100 µM	> 100 µM					
CC(C)C(OC(=O)c1ccc(NCC2=CC(=O)C=CC2=O)cc1)C(C)C	19.7 µM	4.74 µM	11.9 µM	12.6 µM	14.4	27.4	3.67	9.84 µM	22.8 µM	4.1 µM	25.1 µM	> 28.2 µM	> 73.1 µM					
CC(=O)c1ccc2c(c1)CC1(C2)Cc2cc3c(c(C(=O)O)c2C1)CCC3 (stereo not given)		> 100 µM	> 100 µM	> 100 µM	> 100	> 100	> 100	> 100 µM	> 100 µM	> 100 µM	> 100 µM	> 100 µM	> 100 µM					
CCC(C)[C@@H](Nc1c(O)c2c(c(O)c1Cl)C(=O)C=CC2=O)C(=O)OC (stereo not given in full)	9.41 µM		4.49 µM	> 10 µM	> 10	> 10		4.02 µM	> 10 µM	> 10 µM	5.14 µM	7.39 µM	> 10 µM					
CC1=CC[C@@]2(C)CC[C@](O)(C(C)C)C2C(OC(=O)c2ccccc2)C1 (stereo not given in full)	37.8 µM	32.6 µM	97 µM	47.8 µM	35.3	54.4	27.3	43 µM	33.4 µM	37.4 µM	41.6 µM	37.2 µM	37.3 µM					
CCOP(=O)(OCC)C(NC(=O)C(C(F)(F)F)C(F)(F)F)c1ccccc1 (stereo not given)	> 100 µM	> 100 µM	> 100 µM	> 100 µM	> 100	> 100	> 100	> 100 µM	> 100 µM	> 100 µM	> 100 µM	67 µM	> 100 µM					
O=C(CSCC(=O)N/N=C\c1cccc([N+](=O)[O-])c1)N/N=C\c1cccc([N+](=O)[O-])c1	> 100 µM	> 100 µM	> 100 µM		36.4	> 100	> 100	> 100 µM	63.6 µM	84.7 µM	69.1 µM	> 100 µM	> 100 µM					
